Data set [1] deals with T1, CYP2D6 (Homo sapiens, UniProt P10635).
T1 construct: purchased Promega (Madison, WI, USA)
The experiment in a line: Drug-drug interactions, CYP2D6 P450-Glo. The format is in vitro ADME. Particulars: 10 µM. As to the method: To predict potential drug-drug interactions (DDI) effects on three of the most relevant cytochrome P450 (CYP), isoforms CYP3A4, CYP2D6 and CYP2C9 were investigated at a concentration of 10 µM. The results were compared with the effects of 1 µM of the selective inhibitors ketoconazole (CYP3A4), quinidine (CYP2D6) and sulfaphenazole (CYP2C9).
The influence of the tested compounds on recombinant human cytochromes was determined with the use of CYP3A4, CYP2D6 and CYP2C9 P450-Glo™ kits and protocols provided by Promega (Madison, WI, USA). Compounds were tested at a concentration of 10 μM. Reference inhibitors: Ketoconazole (CYP3A4), quinidine (CYP2D6) and sulfaphenazole (CYP2C9) were tested at 1 μM. The luminescent signals were measured using a microplate reader EnSpire PerkinElmer (Waltham, MA, USA).

The subject of data set [2] is BV-2 cells. The experiment in a line: Phagocytic activity, IncuCyte pHrodo. In kind it is cell-based. Particulars: 1 µM; BV-2, LPS 1 μg/mL; apoptotic Jurkat target cells. As for the experimental part:
For the evaluation of phagocytic activity, compound 22 (MZ1490) was chosen as the most promising one on the basis of the results from the Griess assay. This compound was tested at a concentration of 1 µM, and phagocytosis was monitored in real time using an IncuCyte® pHrodo® Red Cell Labeling Kit (catalog no. 4766, Sartorius, Göttingen, Germany). […] It is interesting to note that the phagocytic activity exerted by untreated BV-2 cells is also related to the serum concentration. A healthy CNS maintains the BBB, and microglia are often highly ramified surveillance microglia without enhanced phagocytosis. […]
Phagocytosis was monitored in real time using the IncuCyte® pHrodo® Red Cell Labeling Kit. The principle of this test is based on the ability of the pHrodo to emit fluorescence in an acidic environment, which is precisely the environment inside the phagosome. If effector cells engulf labeled target cells and these enter the acidic phagosome, a substantial increase in fluorescence is observed. In this way, we can quantify phagocytosis. […] After this time, the labeled Jurkat apoptotic cells were added to the BV-2 cells at a density of 100,000 cells/well and the cells were monitored in an IncuCyte Live-Cell Analysis System. Repeat scanning to record phase and fluorescence images was carried out every 1 h, for up to 22 h. […]

“Also recorded” adds a separate entry of the source.

T1 sequence (P10635 whole entry): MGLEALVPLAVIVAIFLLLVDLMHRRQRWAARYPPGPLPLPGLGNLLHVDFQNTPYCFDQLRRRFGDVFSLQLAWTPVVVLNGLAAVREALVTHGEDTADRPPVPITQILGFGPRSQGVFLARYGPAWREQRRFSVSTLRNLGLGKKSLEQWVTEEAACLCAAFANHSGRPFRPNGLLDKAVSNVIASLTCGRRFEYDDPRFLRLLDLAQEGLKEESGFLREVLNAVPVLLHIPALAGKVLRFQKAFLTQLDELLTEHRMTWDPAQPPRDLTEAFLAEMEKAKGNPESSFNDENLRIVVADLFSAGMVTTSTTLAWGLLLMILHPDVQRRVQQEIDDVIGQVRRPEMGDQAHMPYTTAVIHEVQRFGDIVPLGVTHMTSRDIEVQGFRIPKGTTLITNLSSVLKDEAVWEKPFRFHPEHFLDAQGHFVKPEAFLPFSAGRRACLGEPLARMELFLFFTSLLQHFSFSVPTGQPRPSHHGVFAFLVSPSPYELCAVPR

For the compound `C#CCn1c(=O)c2c(nc(NCc3cccc(Br)c3)n2C)n(C)c1=O` [compound 24, 8-((3-Bromobenzyl)amino)-3,7-dimethyl-1-(prop-2-yn-1-yl)-3,7-dihydro-1H-purine-2,6-dione], the “effect on CYP2D6 activity (in words)” value in data set [1] is on record as “slight, statistically significant inhibition”. `C#CCn1c(=O)c2c(nc(NCc3c(F)cccc3Cl)n2C)n(C)c1=O` [compound 22, 8-((2-Chloro-6-fluorobenzyl)amino)-3,7-dimethyl-1-(prop-2-yn-1-yl)-3,7-dihydro-1H-purine-2,6-dione]: the “effect on phagocytosis (in words)” value in data set [2] was “protects microglia from LPS-induced inflammation and, therefore, also from phagocytosis; also recorded: protected from phagocytosis”.

Values taken from publication PMC10531311, “Anti-Inflammatory Activities of 8-Benzylaminoxanthines Showing High Adenosine A2A and Dual A1/A2A Receptor Affinity” (International Journal of Molecular Sciences, 2023).
